Values quoted from earlier work, collected in patent US6346264B1, “Supplement for restoring growth hormone levels” (International Health Products and Services Ltd., priority 1999, dated 2002).
Where two headings read alike, the source gives them in different places.

What was measured:
[1] = test system: hGH release; details: low doses in the region of 200 mg (Matteini)
[2] = after six months of usage, without exercise
[3] = 4 months, deficient adults
[4] = 6 months, growth hormone deficient patients
[5] = 202 patients, age 39-74, hGH injection

Compound: N=C(N)NCCC[C@H](N)C(=O)O [arginine]
- hGH release [1]: can elevate hGH release

Compound: hGH: human growth hormone, medical name Somatotropin, produced in the anterior pituitary gland; available as injectable bio-synthetic product
- increase in healing capacity [5]: 71%
- individuals describing improvement in duration of penile erection [5]: 62%
- individuals describing increase and improvement in sexual potency and frequency of sexual relations [5]: 75%
- individuals with improved energy levels [5]: 84%
- individuals with improved muscle strength [5]: 88%
- IGF-1 levels (high frequency-low dose injections): elevated
- average increase in lean muscle mass [2]: 8%
- loss of fat [2]: 14.4%
- IGF-1 levels [3]: normalized
- fat [3]: reduced
- muscle thickness [3]: increased
- renal plasma flow and glomerular filtration rates [3]: raised from subnormal levels to levels comparable for their age
- Insulin-like Growth Factor 1 (IGF-1) [4]: increase
- fat [4]: reduction
- lean body mass [4]: increase
- metabolic rate [4]: increased
- plasma cholesterol [4]: lowered
